From PMC8253220, “Molecular design, synthesis and in vitro biological evaluation of thienopyrimidine–hydroxamic acids as chimeric kinase HDAC inhibitors: a challenging approach to combat cancer” (Journal of Enzyme Inhibition and Medicinal Chemistry, 2021)
Several values for one entry are separate records, joined by “and”; a condition that tells them apart may be missing. Equal entries are not always repeated.

Assays:
Assay type in all cases: cell-based, human
A549/ATCC = experiment: NCI one-dose screen; conditions: NSCLC A549/ATCC, 10 µM single dose
Experimental: (§1) All of the synthesised structures were selected and submitted to NCI based on computer modelling techniques and the degree of diversity of structures for the evaluation of their antiproliferative activity. The 20 synthesised compounds were selected with their respective NCI codes [NCS D-820157- NCS D-820176] for the inhibition percent assay at an initial single dose of 10 μM on the full NCI 60 cell panel, where the mean graph of the percent growth for all compounds on the full NCI cell panel is evaluated, compared to the untreated control cells (Supplementary Material). In vitro cell line inhibition % of all synthesised compounds is represented in (Table 1 of Supplementary Material).
(§2) All of the synthesised compounds (20) were submitted to NCI and selected for in vitro anticancer assay against a panel of 60 cancer cell lines. The methodology of assay and calculations is as reported.

BT-549 = experiment: NCI one-dose screen; conditions: Breast BT-549, 10 µM single dose
Experimental: as §1, §2

CAKI-1 = experiment: NCI one-dose screen; conditions: Renal CAKI-1, 10 µM single dose
Experimental: as §1, §2

DU-145 = experiment: NCI one-dose screen; conditions: Prostate DU-145, 10 µM single dose
Experimental: as §1, §2

EKVX = experiment: NCI one-dose screen; conditions: NSCLC EKVX, 10 µM single dose
Experimental: as §1, §2

HCC-2998 = experiment: NCI one-dose screen; conditions: Colon HCC-2998, 10 µM single dose
Experimental: as §1, §2

HCT-15 = experiment: NCI one-dose screen; conditions: Colon HCT-15, 10 µM single dose
Experimental: as §1, §2

HL-60(TB) = experiment: NCI one-dose screen; conditions: Leukemia HL-60(TB), 10 µM single dose
Experimental: as §1, §2

HOP-62 = experiment: NCI one-dose screen; conditions: NSCLC HOP-62, 10 µM single dose
Experimental: as §1, §2

HOP-92 = experiment: NCI one-dose screen; conditions: NSCLC HOP-92, 10 µM single dose
Experimental: as §1, §2

HS 578T = experiment: NCI one-dose screen; conditions: Breast HS 578T, 10 µM single dose
Experimental: as §1, §2

KM12 = experiment: NCI one-dose screen; conditions: Colon KM12, 10 µM single dose
Experimental: as §1, §2

MCF7 = experiment: NCI one-dose screen; conditions: Breast MCF7, 10 µM single dose
Experimental: as §1, §2

MDA-MB-231/ATCC = experiment: NCI one-dose screen; conditions: Breast MDA-MB-231/ATCC, 10 µM single dose
Experimental: as §1, §2

MDA-MB-435 = experiment: NCI one-dose screen; conditions: Melanoma MDA-MB-435, 10 µM single dose
Experimental: as §1, §2

MDA-MB-468 = experiment: NCI one-dose screen; conditions: Breast MDA-MB-468, 10 µM single dose
Experimental: as §1, §2

NCI-H322M = experiment: NCI one-dose screen; conditions: NSCLC NCI-H322M, 10 µM single dose
Experimental: as §1, §2

NCI-H460 = experiment: NCI one-dose screen; conditions: NSCLC NCI-H460, 10 µM single dose
Experimental: as §1, §2

OVCAR-3 = experiment: NCI one-dose screen; conditions: Ovarian OVCAR-3, 10 µM single dose
Experimental: as §1, §2

OVCAR-4 = experiment: NCI one-dose screen; conditions: Ovarian OVCAR-4, 10 µM single dose
Experimental: as §1, §2

OVCAR-5 = experiment: NCI one-dose screen; conditions: Ovarian OVCAR-5, 10 µM single dose
Experimental: as §1, §2

OVCAR-8 = experiment: NCI one-dose screen; conditions: Ovarian OVCAR-8, 10 µM single dose
Experimental: as §1, §2

PC-3 = experiment: NCI one-dose screen; conditions: Prostate PC-3, 10 µM single dose
Experimental: as §1, §2

RPMI-8226 = experiment: NCI one-dose screen; conditions: Leukemia RPMI-8226, 10 µM single dose
Experimental: as §1, §2

RXF 393 = experiment: NCI one-dose screen; conditions: Renal RXF 393, 10 µM single dose
Experimental: as §1, §2

SF-295 = experiment: NCI one-dose screen; conditions: CNS SF-295, 10 µM single dose
Experimental: as §1, §2

SF-539 = experiment: NCI one-dose screen; conditions: CNS SF-539, 10 µM single dose
Experimental: as §1, §2

SK-MEL-28 = experiment: NCI one-dose screen; conditions: Melanoma SK-MEL-28, 10 µM single dose
Experimental: as §1, §2

SK-MEL-5 = experiment: NCI one-dose screen; conditions: Melanoma SK-MEL-5, 10 µM single dose
Experimental: as §1, §2

SK-OV-3 = experiment: NCI one-dose screen; conditions: Ovarian SK-OV-3, 10 µM single dose
Experimental: as §1, §2

SN12C = experiment: NCI one-dose screen; conditions: Renal SN12C, 10 µM single dose
Experimental: as §1, §2

TK-10 = experiment: NCI one-dose screen; conditions: Renal TK-10, 10 µM single dose
Experimental: as §1, §2

U251 = experiment: NCI one-dose screen; conditions: CNS U251, 10 µM single dose
Experimental: as §1, §2

UACC-257 = experiment: NCI one-dose screen; conditions: Melanoma UACC-257, 10 µM single dose
Experimental: as §1, §2

UO-31 = experiment: NCI one-dose screen; conditions: Renal UO-31, 10 µM single dose
Experimental: as §1, §2

full NCI 60 cell panel = experiment: NCI one-dose screen, whole panel statistics; conditions: 1.00E-5 Molar; for Mean Growth Percent: mean over panel
Experimental: as §1, §2

Row | SMILES | Growth Percent (A549/ATCC) | Growth Percent (BT-549) | Growth Percent (CAKI-1) | Growth Percent (DU-145) | Growth Percent (EKVX) | Growth Percent (HCC-2998) | Growth Percent (HCT-15) | Growth Percent (HL-60(TB)) | Growth Percent (HOP-62) | Growth Percent (HOP-92) | Growth Percent (HS 578T) | Growth Percent (KM12) | Growth Percent (MCF7) | Growth Percent (MDA-MB-231/ATCC) | Growth Percent (MDA-MB-435) | Growth Percent (MDA-MB-468) | Growth Percent (NCI-H322M) | Growth Percent (NCI-H460) | Growth Percent (OVCAR-3) | Growth Percent (OVCAR-4) | also measured
1 | Cc1c(C(=O)NO)sc2ncnc(Nc3ccc(NC(=O)Nc4ccccc4)cc3)c12 [Compound 7a, 1–(4-(6-(hydroxycarbamoyl)-5-methylthieno[2,3-d]pyrimidin-4-ylamino)phenyl)-3-phenylurea] | 103.8% and 103.82% | 87.6% | 91.6% and 91.67% | 100.2% and 100.26% | 88.9% and 88.95% | 99.3% and 99.38% | 99.1% and 99.16% | 102.2% and 102.25% | 102.6% and 102.62% | 117.3% and 117.36% | 97.7% and 97.71% | 94.8% and 94.85% | 90.7% and 90.78% | 91.1% and 91.12% | 102.0% and 102.09% | 111.9% and 111.92% | 98.4% and 98.47% | 100.3% and 100.39% | 105.4% and 105.48% | 94.1% and 94.11% | Growth Percent (OVCAR-5): 105.3% and 105.35%; Growth Percent (OVCAR-8): 106.3% and 106.33%; Growth Percent (PC-3): 97.3% and 97.34%; Growth Percent (RPMI-8226): 105.4% and 105.45%; Growth Percent (RXF 393): 110.2%; Growth Percent (SF-295): 96.2% and 96.23%; Growth Percent (SF-539): 96.0%; Growth Percent (SK-MEL-28): 104.3% and 104.39%; Growth Percent (SK-MEL-5): 101.0% and 101.07%; Growth Percent (SK-OV-3): 122.7% and 122.74%; Growth Percent (SN12C): 102.8% and 102.86%; Growth Percent (TK-10): 108.5% and 108.59%; Growth Percent (U251): 89.3% and 89.34%; Growth Percent (UACC-257): 115.5% and 115.56%; Growth Percent (UO-31): 74.6% and 74.65%; Delta (one dose mean graph) (full NCI 60 cell panel): 24.69%; Range (one dose mean graph) (full NCI 60 cell panel): 48.09%; Mean Growth Percent (full NCI 60 cell panel): 99.34%
2 | Cc1c(C(=O)NO)sc2ncnc(Nc3ccc(NC(=S)Nc4ccccc4)cc3)c12 [Compound 7d, 1–(4-(6-(hydroxycarbamoyl)-5-methylthieno[2,3-d]pyrimidin-4-ylamino)phenyl)-3-phenylthiourea] | 101.3% and 101.33% | 106.3% and 106.33% | 96.5% and 96.56% | 106.96% | 93.6% and 93.61% | 99.8% and 99.86% | 95.3% and 95.39% | 102.7% and 102.72% | 100.8% and 100.85% | 114.8% and 114.88% | 104.5% and 104.57% | 102.1% and 102.11% | 95.2% and 95.28% | 94.9% and 94.96% | 101.3% and 101.34% | 103.9% and 103.92% | 107.3% and 107.32% | 102.0% and 102.05% | 111.0% and 111.03% | 104.6% and 104.62% | Growth Percent (OVCAR-5): 102.8%; Growth Percent (OVCAR-8): 103.1%; Growth Percent (PC-3): 105.6% and 105.68%; Growth Percent (RXF 393): 103.7% and 103.72%; Growth Percent (SF-295): 98.3% and 98.32%; Growth Percent (SF-539): 100.3% and 100.31%; Growth Percent (SK-MEL-28): 105.0% and 105.07%; Growth Percent (SK-MEL-5): 101.2% and 101.24%; Growth Percent (SK-OV-3): 120.7% and 120.74%; Growth Percent (SN12C): 100.8% and 100.86%; Growth Percent (TK-10): 106.3% and 106.37%; Growth Percent (U251): 104.0% and 104.08%; Growth Percent (UACC-257): 99.4% and 99.45%; Growth Percent (UO-31): 85.0% and 85.06%; Delta (one dose mean graph) (full NCI 60 cell panel): 17.28%; Range (one dose mean graph) (full NCI 60 cell panel): 35.68%; Mean Growth Percent (full NCI 60 cell panel): 102.34%
3 | Cc1c(C(=O)NO)sc2ncnc(Nc3ccc(F)c(Cl)c3)c12 [Compound 15d, 4–(3-chloro-4-fluorophenylamino)-N-hydroxy-5-methylthieno[2,3-d]pyrimidine-6-carboxamide] | 100.7% and 100.72% | 114.0% and 114.08% | 90.4% and 90.42% | 101.9% and 101.96% | 88.0% and 88.08% | 102.4% and 102.42% | 96.0% and 96.09% | 101.9% and 101.99% | 99.3% | 120.5% and 120.52% | 102.4% and 102.42% | 102.3% and 102.31% | 93.8% and 93.88% | 97.2% and 97.25% | 101.0% and 101.03% | 85.6% and 85.68% | 107.6% and 107.66% | 101.5% and 101.54% | 108.5% and 108.52% | 102.2% and 102.21% | Growth Percent (OVCAR-5): 101.3% and 101.35%; Growth Percent (OVCAR-8): 105.0% and 105.01%; Growth Percent (PC-3): 110.4% and 110.42%; Growth Percent (RXF 393): 100.3% and 100.37%; Growth Percent (SF-295): 93.7% and 93.74%; Growth Percent (SF-539): 98.5% and 98.57%; Growth Percent (SK-MEL-28): 109.6% and 109.62%; Growth Percent (SK-MEL-5): 100.5% and 100.59%; Growth Percent (SK-OV-3): 114.4% and 114.45%; Growth Percent (SN12C): 100.1% and 100.14%; Growth Percent (TK-10): 118.5% and 118.53%; Growth Percent (U251): 98.2%; Growth Percent (UACC-257): 109.9% and 109.91%; Growth Percent (UO-31): 77.0% and 77.07%; Delta (one dose mean graph) (full NCI 60 cell panel): 24.43%; Range (one dose mean graph) (full NCI 60 cell panel): 43.45%; Mean Growth Percent (full NCI 60 cell panel): 101.50%
